Laboratory results reported in PubChem BioAssay AID248 (DTP/NCI, 2004).
Values joined by “and” are separate entries in the source; they are usually repeats but may differ in a detail not shown here. Equal values may be shown once. Inconclusive results and toxic doses are left out. Cut-off read from the data, not from the text of the source: active = T/C of 150% or more; inactive = T/C below 125%.

Tested on: L1210 leukemia ip in BDF1 mice, survival T/C
Experiment: NCI In Vivo Anticancer Drug Screen. Data for tumor model L1210 Leukemia (intraperitoneal) in B6D2F1 (BDF1) mice
Settings: endpoint: mean survival time, higher = longer survival
Procedure, shortened: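 Ratio derived from survival: compound-dosed mice over vehicle-dosed mice, all bearing a transplantable tumor.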

[1] = dose: 100.0 mg/kg/injection, schedule: Q01DX001 (ip), vehicle: saline
[2] = dose: 200.0 mg/kg/injection, schedule: Q01DX001 (ip), vehicle: saline
[3] = dose: 400.0 mg/kg/injection, schedule: Q01DX001 (ip), vehicle: saline
[4] = dose: 50.0 mg/kg/injection, schedule: Q01DX001 (ip), vehicle: carboxymethylcellulose (CMC)
[5] = dose: 100.0 mg/kg/injection, schedule: Q01DX001 (ip), vehicle: carboxymethylcellulose (CMC)
[6] = dose: 200.0 mg/kg/injection, schedule: Q01DX001 (ip), vehicle: carboxymethylcellulose (CMC)
[7] = dose: 400.0 mg/kg/injection, schedule: Q01DX001 (ip), vehicle: carboxymethylcellulose (CMC)
[8] = dose: 100.0 mg/kg/injection, schedule: Q04DX002 (ip), vehicle: Klucel (hydroxypropylcellulose) (HPC)
[9] = dose: 200.0 mg/kg/injection, schedule: Q04DX002 (ip), vehicle: Klucel (hydroxypropylcellulose) (HPC)
[10] = dose: 400.0 mg/kg/injection, schedule: Q04DX002 (ip), vehicle: Klucel (hydroxypropylcellulose) (HPC)
[11] = dose: 100.0 mg/kg/injection, schedule: Q01DX009 (ip), vehicle: Klucel (hydroxypropylcellulose) (HPC)
[12] = dose: 100.0 mg/kg/injection, schedule: Q04DX003 (ip), vehicle: Klucel (hydroxypropylcellulose) (HPC)
[13] = dose: 200.0 mg/kg/injection, schedule: Q01DX009 (ip), vehicle: Klucel (hydroxypropylcellulose) (HPC)
[14] = dose: 200.0 mg/kg/injection, schedule: Q04DX003 (ip), vehicle: Klucel (hydroxypropylcellulose) (HPC)
[15] = dose: 400.0 mg/kg/injection, schedule: Q01DX009 (ip), vehicle: Klucel (hydroxypropylcellulose) (HPC)
[16] = dose: 400.0 mg/kg/injection, schedule: Q04DX003 (ip), vehicle: Klucel (hydroxypropylcellulose) (HPC)
[17] = dose: 100.0 mg/kg/injection, schedule: Q01DX001 (ip), vehicle: saline with Tween-80
[18] = dose: 200.0 mg/kg/injection, schedule: Q01DX001 (ip), vehicle: saline with Tween-80
[19] = dose: 400.0 mg/kg/injection, schedule: Q01DX001 (ip), vehicle: saline with Tween-80
[20] = dose: 100.0 mg/kg/injection, schedule: Q01DX009 (ip), vehicle: saline with Tween-80
[21] = dose: 100.0 mg/kg/injection, schedule: Q04DX002 (ip), vehicle: saline with Tween-80
[22] = dose: 100.0 mg/kg/injection, schedule: Q04DX003 (ip), vehicle: saline with Tween-80
[23] = dose: 200.0 mg/kg/injection, schedule: Q01DX009 (ip), vehicle: saline with Tween-80
[24] = dose: 200.0 mg/kg/injection, schedule: Q04DX002 (ip), vehicle: saline with Tween-80
[25] = dose: 200.0 mg/kg/injection, schedule: Q04DX003 (ip), vehicle: saline with Tween-80
[26] = dose: 400.0 mg/kg/injection, schedule: Q01DX009 (ip), vehicle: saline with Tween-80
[27] = dose: 400.0 mg/kg/injection, schedule: Q04DX002 (ip), vehicle: saline with Tween-80
[28] = dose: 400.0 mg/kg/injection, schedule: Q04DX003 (ip), vehicle: saline with Tween-80
[29] = dose: 12.5 mg/kg/injection, schedule: Q01DX009 (ip), vehicle: saline
[30] = dose: 25.0 mg/kg/injection, schedule: Q01DX009 (ip), vehicle: saline
[31] = dose: 50.0 mg/kg/injection, schedule: Q04DX003 (ip), vehicle: saline
[32] = dose: 25.0 mg/kg/injection, schedule: Q04DX003 (ip), vehicle: saline

Measured: T/C

O=C(O)C(=C/c1ccccc1)/C(=C\c1ccccc1)C(=O)O
inactive: [1] 103 % of control | dose: 100.0 mg/kg/injection, schedule: Q01DX009 (ip), vehicle: saline 89 % of control | [2] 105 % of control | dose: 200.0 mg/kg/injection, schedule: Q01DX009 (ip), vehicle: saline 93 % of control | [3] 97 % of control | dose: 400.0 mg/kg/injection, schedule: Q01DX009 (ip), vehicle: saline 90 % of control

Nc1c(N)c2ccccc2c2ccccc12
inactive: [4] 115 % of control | [5] 110 % of control | [6] 117 % of control | [7] 110 % of control

CCO/C=N\c1c(C#N)c(CC#N)nn1C
inactive: [8] 102 % of control | [9] 98 % of control | [10] 102 % of control

CCN(CC)C(=O)N1CCN(C)CC1
inactive: [11] 101 % of control | [12] 94 % of control | [13] 106 % of control | [14] 98 % of control | [15] 104 % of control | [16] 96 % of control

C/C(=C\C(C)(C)c1ccccc1)c1ccccc1 (tested in a mixture with another compound)
inactive: dose: 50.0 mg/kg/injection, schedule: Q01DX001 (ip), vehicle: saline 90 % of control | [1] 96 % of control | [2] 113 % of control | [3] 116 % of control

Cc1ccc(-n2c(=O)c(N=Nc3ccc(Br)cc3)c(O)n(-c3ccccc3Cl)c2=S)cc1
inactive: dose: 37.5 mg/kg/injection, schedule: Q01DX001 (ip), vehicle: Klucel (hydroxypropylcellulose) (HPC) 107 % of control | dose: 75.0 mg/kg/injection, schedule: Q01DX001 (ip), vehicle: Klucel (hydroxypropylcellulose) (HPC) 110 % of control | dose: 150.0 mg/kg/injection, schedule: Q01DX001 (ip), vehicle: Klucel (hydroxypropylcellulose) (HPC) 104 % of control

CNC(=S)N/N=C(\C=N\NC(=S)NC)c1ccc(-c2ccccc2)cc1
inactive: [8] 89 % of control | [9] 92 % of control | [10] 92 % of control

Cc1cccc(-n2cnc3c(=O)[nH]c(N)nc32)c1
inactive: [12] 95 % of control | [14] 95 % of control | [16] 93 % of control

CN(C)c1ncnc(N)n1
inactive: [11] 91 % of control | [12] 95 % of control | [13] 88 % of control | [14] 98 % of control | [15] 90 % of control | [16] 97 % of control

CC(=O)Nc1cccc(OCc2ccc([N+](=O)[O-])cc2)c1
inactive: dose: 50.0 mg/kg/injection, schedule: Q01DX009 (ip), vehicle: Klucel (hydroxypropylcellulose) (HPC) 111 % of control | [11] 97 % of control | [13] 97 % of control

CCCCCCCCCCCC(=O)OCC1(C)COC(c2ccccc2)=N1 (centres undefined)
inactive: [17] 97 % of control | [18] 104 % of control | [19] 104 % of control

CC(=O)c1cccc(NC(=O)Nc2ccccc2)c1
inactive: [11] 94 % of control | [12] 100 % of control | [13] 98 % of control | [14] 96 % of control | [15] 100 % of control | [16] 97 % of control

Oc1ccc(O)c(-c2cc3c(O)ccc(O)c3[nH]2)c1
inactive: dose: 25.0 mg/kg/injection, schedule: Q04DX002 (ip), vehicle: Klucel (hydroxypropylcellulose) (HPC) 104 % of control | dose: 50.0 mg/kg/injection, schedule: Q04DX002 (ip), vehicle: Klucel (hydroxypropylcellulose) (HPC) 93 % of control | [8] 104 % of control | [9] 96 % of control

OC(Br)C1C(c2ccccc2)N1C1CCCCC1 (centres undefined)
inactive: [12] 98 % of control | [14] 91 % of control | [16] 93 % of control

CSc1ccc(NC(=O)Oc2cc3ccccc3cc2C(=O)Nc2ccc(Cl)cc2)cc1
inactive: [20] 99 % of control and 86 % of control | [21] 88 % of control | [22] 90 % of control | [23] 111 % of control and 89 % of control | [24] 91 % of control and 92 % of control | [25] 92 % of control | [26] 95 % of control and 96 % of control | [27] 94 % of control and 103 % of control | [28] 87 % of control

O=C(C[n+]1ccc2ccccc2c1)c1ccccc1
inactive: [29] 98 % of control | [30] 104 % of control | dose: 50.0 mg/kg/injection, schedule: Q01DX009 (ip), vehicle: saline 101 % of control | [31] 97 % of control

Cc1cc(C(=O)C(=O)OC(c2ccccc2)c2ccccc2)c(CN2C(=O)c3ccccc3C2=O)c(=O)n1C
inactive: dose: 25.0 mg/kg/injection, schedule: Q04DX002 (ip), vehicle: saline with Tween-80 101 % of control | dose: 50.0 mg/kg/injection, schedule: Q04DX002 (ip), vehicle: saline with Tween-80 108 % of control | [21] 108 % of control

O=C1CCCC/C1=C1/C(=O)Nc2ccccc21
inactive: dose: 50.0 mg/kg/injection, schedule: Q01DX009 (ip), vehicle: saline with Tween-80 104 % of control | [20] 118 % of control | [23] 110 % of control

CCOC(=O)C(Cc1ccc(O)cc1)Nc1nc2ccccc2o1 (centres undefined)
inactive: [5] 96 % of control | [6] 96 % of control | [7] 96 % of control

CSc1ccc(NC(=O)Oc2ccc(C(=O)OCc3ccccc3)cc2)cc1
inactive: [17] 100 % of control and 88 % of control | [20] 99 % of control and 87 % of control | [21] 97 % of control and 101 % of control | [22] 102 % of control | [18] 97 % of control | [23] 108 % of control and 89 % of control | [24] 97 % of control and 87 % of control | [25] 103 % of control | [19] 100 % of control | [26] 99 % of control and 92 % of control | [27] 95 % of control and 97 % of control | [28] 103 % of control

Cc1ccc2c(c1)C=C/C(=C/c1cc[n+](C)c3ccccc13)N2C
inactive: dose: 100.0 mg/kg/injection, schedule: Q01DX001 (ip), vehicle: other 97 % of control | dose: 200.0 mg/kg/injection, schedule: Q01DX001 (ip), vehicle: other 92 % of control

CC(=O)OC12CC[N+]3(C)CCCCC3C1=Nc1ccccc12 (centres undefined)
inactive: dose: 6.25 mg/kg/injection, schedule: Q01DX009 (ip), vehicle: saline 98 % of control | dose: 10.0 mg/kg/injection, schedule: Q01DX001 (ip), vehicle: carboxymethylcellulose (CMC) 102 % of control | [29] 102 % of control | dose: 20.0 mg/kg/injection, schedule: Q01DX001 (ip), vehicle: carboxymethylcellulose (CMC) 105 % of control | [30] 102 % of control | [32] 103 % of control | dose: 40.0 mg/kg/injection, schedule: Q01DX001 (ip), vehicle: carboxymethylcellulose (CMC) 100 % of control | dose: 80.0 mg/kg/injection, schedule: Q01DX001 (ip), vehicle: carboxymethylcellulose (CMC) 102 % of control

C/C=C/c1ccc2ccc[n+](C)c2c1O
inactive: [32] 94 % of control | [4] 103 % of control | [31] 98 % of control | [5] 95 % of control | dose: 100.0 mg/kg/injection, schedule: Q04DX003 (ip), vehicle: saline 94 % of control

CCCNC(=O)Oc1ccc(-c2ccccc2)cc1Cl
inactive: [21] 113 % of control | [24] 100 % of control | [27] 97 % of control

N#CCC(NC(=O)OCc1ccccc1)C(=O)OCc1ccccc1 (centres undefined)
inactive: [20] 98 % of control | [22] 98 % of control | [23] 96 % of control | [25] 93 % of control | [26] 86 % of control | [28] 89 % of control

CC/C=C(\C)C1(CCC)C(=O)NC(=O)NC1=O
inactive: dose: 75.0 mg/kg/injection, schedule: Q01DX001 (ip), vehicle: saline 102 % of control | dose: 150.0 mg/kg/injection, schedule: Q01DX001 (ip), vehicle: saline 107 % of control

COc1cc2c(cc1OC)C(Cc1ccc(O)cc1)N(C)CC2 (centres undefined)
inactive: [1] 96 % of control | [2] 91 % of control
